Reference: patent US12521356B2, “Compositions and methods for treating pain, inflammation, infection, malaria, and sepsis” (Duke University, priority 2018, dated 2026)

Experiments:
GPR37 = target: T1, GPR37 (Mus musculus, UniProt Q9QY42); experiment: Ca2+ imaging (Fluo-4AM) in peritoneal macrophages (pMΦ) from WT and Gpr37−/− mice; type: cell-based; conditions: for iCa2+ levels: 100 nM
T1 sequence (Q9QY42 27-600): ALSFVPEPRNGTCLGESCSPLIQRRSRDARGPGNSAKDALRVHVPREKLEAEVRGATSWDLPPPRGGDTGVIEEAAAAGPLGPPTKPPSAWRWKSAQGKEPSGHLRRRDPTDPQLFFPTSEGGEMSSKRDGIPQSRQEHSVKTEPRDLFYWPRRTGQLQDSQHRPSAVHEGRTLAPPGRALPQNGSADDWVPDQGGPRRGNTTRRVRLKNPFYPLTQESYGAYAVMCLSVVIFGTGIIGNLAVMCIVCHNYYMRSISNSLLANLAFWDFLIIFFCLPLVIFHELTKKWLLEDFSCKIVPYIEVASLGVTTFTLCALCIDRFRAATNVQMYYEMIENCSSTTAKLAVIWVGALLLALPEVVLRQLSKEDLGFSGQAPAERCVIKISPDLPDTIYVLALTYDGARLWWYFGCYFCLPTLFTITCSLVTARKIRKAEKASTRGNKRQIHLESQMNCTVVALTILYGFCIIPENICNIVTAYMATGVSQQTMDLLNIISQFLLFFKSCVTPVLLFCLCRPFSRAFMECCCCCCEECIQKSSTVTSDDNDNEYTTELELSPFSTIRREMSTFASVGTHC
Method: (§1) Peritoneal macrophage culture. Peritoneal macrophages were collected by peritoneal lavage with 10 ml warm PBS containing of 1 mM EDTA. Cells were incubated in DMEM supplemented with 10% FBS at 37° C. for 2 h in petri dish and washed with PBS to eliminate non-adherent cells. The adherent cells were used as peritoneal macrophages. Peritoneal macrophages were used after 3 days of culture.
Calcium imaging. HEK 293 cells, with or without transfection of Gpr37, GPR32, ChemR23 or ALX1 cDNA, were loaded with 5 μM Fura-2AM (Invitrogen) for 1 hour and then were resuspended in normal external buffer (140 NaCl, 5 KCl, 2 CaCl2, 2 MgCl2, 10 HEPES, in mM, titrated to pH 7.4 with NaOH) or external Ca^2+-free buffer (140 NaCl, 2 MgCl2, 5 EGTA, 10 HEPES, in mM, titrated to pH 7.4 with NaOH). Peritoneal macrophages, collected from WT and Gpr37 KO mice, were loaded with 5 μM […] (Invitrogen) for 1 hour and then were resuspended in normal external buffer. Images of the HEK 293 cells and macrophages with the excitation wavelength of 340 nm and 380 nm were captured with a cooled Digital CMOS camera (ORCA-Flash 4.0, Hamamatsu Photonics K.K, Japan). The ratio of fluorescence intensity of the two wavelengths in each experiment was analyzed using MetaFluor (Molecular Devices). The Shutter speed and wavelength was controlled by Lambda DG-4 system (Sutter instrument Co., Novato, CA). Values from each of the experiments were normalized to the baseline ratio of 340/380 nm.
Next, we conducted GPR37-mediated Ca^2+ imaging in native pMΦ from WT and Gpr37^−/− mice using Fluo-4AM as a Ca^2+ indicator, since this dye works better than Fura-2AM for pMΦ. […] As compared to iCa^2+ increase in GPR37-expressing HEK293 cells, NPD1 trigger a slow-onset but more persistent Ca^2+ response in pMΦ (FIG. 2B and FIG. 2G). A relatively rapid calcium response in HEK293 cells may result from over-expression of GPR37. A sustained iCa^2+ increase in pMΦ may result from the expression of transient receptor potential (TRP) ion channels in these immune cells. It is noteworthy that macrophages express TRPV2 or TRPM2, which are involved in phagocytosis during bacterial infection. […] NPD1-triggered iCa^2+ increase in pMΦ is also Gi-dependent, since PTX blocked this increase (FIG. 2H). For comparison, ATP-evoked iCa^2+ increase was not altered in GPR37-deficient pMΦ (FIG. 2H).

[1] = system: peritoneal macrophages (pMΦ); experiment: Phagocytosis assay with fluorescence-labeled zymosan particles in peritoneal macrophages; type: cell-based, mouse; conditions: for MΦ phagocytosis: pMΦ
Method: as §1
Phagocytosis assay. The phagocytosis assay was modified from a previously described protocol (Sommer C, and Kress M. NeurosciLett. 2004, 361, 184-187). pHrodo® Red Zymosan Bioparticles (diameter, 3 μm, Thermo scientific, Catalog: P35364) were rinsed and reconstituted in RPMI medium. Particles were centrifuged (1 min at 100 g) onto adherent peritoneal macrophages at a ratio of 10:1 to synchronize binding and internalization. After 30 min incubation at 37° C., non-adherent beads were removed with cold PBS and cells were fixed with 2% formalin. Four optic fields were photographed with epifluorescence microscopy. Quantification of zymosan particles ingested by MΦ was conducted on at least 200 macrophages/condition/well, and triplicates were included for statistical analysis.
We investigated whether iCa^2+ increases would trigger phagocytosis of pathogens such as zymosan by macrophages. Zymosan is a well-studied pathogen and activates TLR2 to trigger inflammation and inflammatory pain in rodents after intraplantar injection. We tested phagocytosis in pMΦ using fluorescence-labeled zymosan particles.

Row | iCa2+ levels (GPR37; pMΦ) | iCa2+ increase (GPR37; 30 nM, WT pMΦ) | EC50 (GPR37; pMΦ, dose response, read-out: EC50 of iCa2+ increase) | Compound | MΦ phagocytosis [1] | NPD1-evoked increases in phagocytic activity ([1]; Gpr37-deficient MΦ) | percentage of pMΦ showing the phagocytosis of zymosan particles ([1]; wild-type pMΦ) | phagocytic activity (zymosan particles in pMΦ) ([1]; wild-type pMΦ, 30 nM for 30 min)
1 | did not alter iCa^2+ levels | – | – | CC/C=C\C[C@H](O)/C=C/C=C\C=C\C=C\[C@@H](O)[C@@H](O)C/C=C\CCC(=O)O [RvD1] | induced | – | – | –
2 | – | robust and sustained iCa^2+ increase | 19.5 nM | CC/C=C\C[C@H](O)\C=C/C=C/C=C/[C@H](O)C/C=C\C/C=C\CCC(=O)O [NPD1, neuroprotectin D1] | – | abolished | increased | dose-dependent increase in phagocytic activity
3 | did not alter iCa^2+ levels | – | – | CC[C@@H](O)/C=C/C=C\C[C@@H](O)/C=C/C=C/C=C\[C@@H](O)CCCC(=O)O [RvE1] | induced | – | – | –
